Square brackets hold non-standard residues; d marks the D form. Peptide text beside a SMILES is read from it.
What was measured:
[1] = system: neonatal rat cardiac ventricular myocytes; assay: Neonatal rat cardiac myocyte hypertrophy assay (crystal violet stain, microscopic hypertrophy score); assay type: cell-based
Source text: A miniaturized assay is preferably used to assay the suspected antagonist(s) for hypertrophy-inhibiting activity. In this assay the medium used allows the cells to survive at a low plating density without serum. By plating directly into this medium, washing steps are eliminated so that fewer cells are removed. The plating density is important: many fewer cells and the survival is reduced; many more cells and the myocytes begin to self-induce hypertrophy.
The preferred hypertrophy assay comprises:
(a) pre-coating the wells of 96-well tissue culture plates with a medium containing calf serum, preferably D-MEM/F-12 medium containing 4% fetal calf serum, wherein preferably the wells are incubated with the medium for about eight hours at about 37°C.;
(c) plating a suspension of myocytes in the inner 60 wells at 7.5×10^4 cells per mL in D-MEM/F-12 medium supplemented with insulin, transferrin, and aprotinin;
(d) culturing the myocytes for at least 24 hours in the presence of LIF or endothelin;
(e) adding the test substance;
(f) culturing the cells with the test substance (preferably for about 24-72 hours, more preferably for about 48 hours); and
(g) evaluating hypertrophy, preferably after crystal violet stain, by microscopic examination.
(§1) Neonatal rat cardiac ventricular myocytes were cultured in 96-well plates 35 as described by Pennica et al., supra. Briefly, myocytes were isolated from one-day-old Sprague-Dawley rats by a series of collagenase digestions followed by Percoll™ gradient purification. Iwaki et al., J Biol Chem., 265: 13809-13817 (1990). The myocytes, which band at the lower gradient interface, were collected, washed twice, and re-suspended in D-MEM/F12 medium with 15% (vol/vol) fetal calf serum. The cells were diluted into serum-free D-MEM/F12 medium supplemented with 10 μg/mL transferrin, 1 μg/mL insulin, 1 μg/mL aprotinin, 2-mmol/L glutamine, 100 U/mL penicillin G, and 100 μg/mL streptomycin (assay medium) to a final density of 7.5×10^4 cells per mL. The final serum concentration of this assay medium with cells was <0.1%. Myocytes were plated 200 μL per well in 96-well, flat-bottomed plates that had previously been coated with D-MEM/F12 medium with 4% (vol/vol) fetal calf serum for 8 hours at 37° C. After 24 hours at 37° C. in 5% CO2, test substances were added. Forty-eight hours after the test substances were added, the cells were fixed and stained with 0.5% (wt/vol) crystal violet in methanol and formaldehyde, and the hypertrophy was scored on a scale of 1 to 7 by microscopic evaluation. Untreated cells were used as the negative control and scored as a 3. Toxic effects were scored from 0 to 2. The positive control in each assay was 100 μmol/L phenylephrine, which was scored as 7.

[2] = system: neonatal rat cardiac ventricular myocytes; assay: Myocyte morphology and contractile fiber organization (phallacidin f-actin stain, confocal microscopy); assay type: cell-based; conditions: for organization of contractile fibers (f-actin): 48 hours exposure, fluorescent phallacidin stain
Protocol: as §1
The myocytes were plated in 4-chamber Lab Tek™ glass chamber slides pre-coated for 8 hours with 4% (vol/vol) fetal calf serum in D-MEM/F12 medium and cultured for 24 hours. They were exposed to test substances for 48 hours and then washed 3× in phosphate buffered saline (PBS) and fixed in 95% (vol/vol) ethanol for 15 minutes. The slides were then washed 3×0 in PBS with 0.1% (vol/vol) Tween-20™ surfactant, blocked for 30 minutes with 1% (wt/vol) BSA in PBS with 0.1% Tween-20™ surfactant, and incubated with phallacidin conjugated to BODIPY FL™ brand reagent (10 μg/mL in 1% BSA in PBS) (Molecular Probes, Eugene Oreg.) for 40 minutes to stain the f-actin present in the contractile fibers. The slides were then washed 3× with PBS in 0.1% Tween-20™ surfactant. Images of the phallacidin-stained cells were acquired on a Ultima™ laser-scanning confocal microscope (Meridian Instruments, Okemos, Mich.). A 1.4 NA 60×™ oil-immersion objective was utilized coupled with 488-nm excitation, with the resulting fluorescence measured following a 525-nm long-pass filter. […] The final images were constructed with a maximum fluorescence projection algorithm by compressing the multiple z or depth images into a single two-dimensional representation.

[3] = system: neonatal rat cardiac ventricular myocytes; conditions: neonatal rat cardiac myocytes in culture; Pennica et al. 1995; cited from earlier work

## CC[C@H](C)[C@H](NC(=O)[C@H](CC(=O)O)NC(=O)[C@H](CC(C)C)NC(=O)[C@H](Cc1c[nH]cn1)NC(=O)[C@@H]1CSSC[C@H](N)C(=O)N[C@@H](CO)C(=O)N[C@H]2CSSC[C@H](NC(=O)[C@H](CCC(=O)O)NC(=O)[C@H](CCCCN)NC(=O)[C@H](CC(=O)O)NC(=O)[C@H](CCSC)NC(=O)[C@H](CC(C)C)NC(=O)[C@H](CO)NC(=O)[C@H](CO)NC2=O)C(=O)N[C@@H](C(C)C)C(=O)N[C@@H](Cc2ccc(O)cc2)C(=O)N[C@@H](Cc2ccccc2)C(=O)N1)C(=O)N[C@H](C(=O)N[C@@H](Cc1c[nH]c2ccccc12)C(=O)O)[C@@H](C)CC [endothelin-1]
[1]; purified factors, even at nanomolar concentrations
  hypertrophic response (myocyte cell size and ANP production): partial hypertrophic responses
[2]; 48-hour exposure to maximal concentrations
  morphology of myocytes: more compact with no processes
[2]
  organization of contractile fibers (f-actin): not organized in parallel, had a tangled appearance, and did not show prominent banding

## CNC[C@H](O)c1cccc(O)c1 [phenylephrine]
[1]; 100 μmol/L phenylephrine, scale 1 to 7, untreated 3
  hypertrophy score (positive control): 7
[2]
  organization of contractile fibers (f-actin): organized in parallel arrays with prominent banding

## CC(C)C[C@@H]1NC(=O)[C@@H](C(C)C)NC(=O)[C@@H]2CCCN2C(=O)[C@@H](CC(=O)O)NC(=O)[C@@H](Cc2c[nH]c3ccccc23)NC1=O [BQ-123] (cyclo(L[dW][dD]P[dV]))
[1]; FIG. 3, 100 μmol/L BQ-123, 50 μg/mL LIF Mab
  inhibition of NCM hypertrophy activity: partially inhibited
[1]; FIG. 4A/5A, BQ-123 1-100 μmol/L, LIF Mab 0.5-50 μg/mL
  blocking of hypertrophy activity induced by endothelin-1: blocked
[1]; FIG. 4B/5B, BQ-123 1-100 μmol/L, LIF Mab 0.5-50 μg/mL
  blocking/neutralization of hypertrophy activity induced by mouse LIF: not
[1]; FIG. 4C/5C, BQ-123 1-100 μmol/L, LIF Mab 0.5-50 μg/mL
  blocking of hypertrophy activity induced by phenylephrine: not
[1]; FIG. 4D/5D, BQ-123 1-100 μmol/L, LIF Mab 0.5-50 μg/mL
  blocking of hypertrophy activity induced by CT-1: not
[1]; inhibitor alone, no inducer
  effect on myocyte morphology by itself: no effect
[2]; NCM and BQ-123 or LIF Mab
  morphology of myocytes treated with NCM plus inhibitor: resembled those treated with purified LIF

B1: CT-1: cardiotrophin-1, member of the family of proteins that bind to GH/cytokine receptors (protein, UniProt Q16619 1-201, looked up)
Cardiotrophin-1: MSRREGSLEDPQTDSSVSLLPHLEAKIRQTHSLAHLLTKYAEQLLQEYVQLQGDPFGLPSFSPPRLPVAGLSAPAPSHAGLPVHERLRLDAAALAALPPLLDAVCRRQAELNPRAPRLLRRLEDAARQARALGAAVEALLAALGAANRGPRAEPPAATASAASATGVFPAKVLGLRVCGLYREWLSRTEGDLGQLLPGGSA
[3]
  hypertrophy activity among proteins that bind GH/cytokine receptors: most potent hypertrophy activity
